Measurements as given in the NIST ThermoML archive (doi:10.1016/j.jct.2018.02.022).
“And” between values parts separate entries of the source, which are not always exact repeats. Identical values can stand only once. ± gives the expanded uncertainty stated by the source.

Assay: xn = mol fraction of the nth substance listed
Settings: 293.15 K, 92.3 kPa, Liquid; for viscosity: Concentric cylinders viscometry; for speed of sound: Frequency=3 MHz, Single path-length method; for mass density: Vibrating tube method

With CCO [ethanol] + O the viscosity (x1 = 0.0201) was 1.247 ± 0.17 mPa·s, the viscosity (x1 = 0.0408) was 1.529 ± 0.21 mPa·s and the viscosity (x1 = 0.0497) was 1.648 ± 0.23 mPa·s. For the same compound, the viscosity (x1 = 0.06) was 1.821 ± 0.26 mPa·s, the viscosity (x1 = 0.0796) was 2.045 ± 0.29 mPa·s and the viscosity (x1 = 0.1004) was 2.311 ± 0.32 mPa·s. It also gave a viscosity (x1 = 0.1499) of 2.72 ± 0.38 mPa·s, a viscosity (x1 = 0.1984) of 2.857 ± 0.4 mPa·s and a viscosity (x1 = 0.2499) of 2.864 ± 0.4 mPa·s. For the same compound, the viscosity (x1 = 0.3016) was 2.793 ± 0.39 mPa·s, the viscosity (x1 = 0.3499) was 2.681 ± 0.38 mPa·s and the viscosity (x1 = 0.399) was 2.55 ± 0.36 mPa·s. For the same compound, the viscosity (x1 = 0.4495) was 2.405 ± 0.34 mPa·s, the viscosity (x1 = 0.4989) was 2.291 ± 0.32 mPa·s and the viscosity (x1 = 0.5495) was 2.177 ± 0.3 mPa·s. For the same compound, the viscosity (x1 = 0.6067) was 1.997 ± 0.28 mPa·s, the viscosity (x1 = 0.6503) was 1.895 ± 0.27 mPa·s and the viscosity (x1 = 0.6956) was 1.788 ± 0.25 mPa·s. The viscosity (x1 = 0.75) was 1.68 ± 0.24 mPa·s, the viscosity (x1 = 0.7843) was 1.612 ± 0.23 mPa·s and the viscosity (x1 = 0.8475) was 1.518 ± 0.21 mPa·s. For the same compound, the viscosity (x1 = 0.8864) was 1.42 ± 0.2 mPa·s, the viscosity (x1 = 0.929) was 1.341 ± 0.19 mPa·s and the viscosity (x1 = 1) was 1.202 ± 0.17 mPa·s. The speed of sound (x1 = 0.0024) was 1487.7 ± 1.8 m/s, the speed of sound (x1 = 0.0202) was 1522.5 ± 1.8 m/s and the speed of sound (x1 = 0.0295) was 1540 ± 1.8 m/s. The speed of sound (x1 = 0.0366) was 1553 ± 1.8 m/s, the speed of sound (x1 = 0.0513) was 1578 ± 1.8 m/s and the speed of sound (x1 = 0.06) was 1590.8 ± 1.8 m/s. The speed of sound (x1 = 0.0707) was 1604.2 ± 1.8 m/s, the speed of sound (x1 = 0.0801) was 1613.8 ± 1.8 m/s and the speed of sound (x1 = 0.0904) was 1621.5 ± 1.8 m/s. The speed of sound (x1 = 0.0997) was 1625.7 ± 1.8 m/s, the speed of sound (x1 = 0.1294) was 1623.8 ± 1.8 m/s and the speed of sound (x1 = 0.1497) was 1611.9 ± 1.8 m/s. It also gave a speed of sound (x1 = 0.2008) of 1566.6 ± 1.8 m/s, a speed of sound (x1 = 0.2503) of 1520.2 ± 1.8 m/s and a speed of sound (x1 = 0.2998) of 1478.2 ± 1.8 m/s. The speed of sound (x1 = 0.3507) was 1440.4 ± 1.8 m/s, the speed of sound (x1 = 0.3992) was 1408.9 ± 1.8 m/s and the speed of sound (x1 = 0.4514) was 1379 ± 1.8 m/s. The speed of sound (x1 = 0.5002) was 1353.5 ± 1.8 m/s, the speed of sound (x1 = 0.5494) was 1330.4 ± 1.8 m/s and the speed of sound (x1 = 0.6018) was 1307.8 ± 1.8 m/s. It also gave a speed of sound (x1 = 0.6503) of 1288.5 ± 1.8 m/s, a speed of sound (x1 = 0.7006) of 1269.1 ± 1.8 m/s and a speed of sound (x1 = 0.7355) of 1256 ± 1.8 m/s. For the same compound, the speed of sound (x1 = 0.7965) was 1234.1 ± 1.8 m/s, the speed of sound (x1 = 0.8433) was 1217.4 ± 1.8 m/s and the speed of sound (x1 = 0.892) was 1199.7 ± 1.8 m/s. For the same compound, the speed of sound (x1 = 0.9093) was 1193.5 ± 1.8 m/s, the speed of sound (x1 = 0.9207) was 1189.5 ± 1.8 m/s and the speed of sound (x1 = 0.9307) was 1185.8 ± 1.8 m/s. The speed of sound (x1 = 0.9398) was 1182.6 ± 1.8 m/s, the speed of sound (x1 = 0.9483) was 1179.4 ± 1.8 m/s and the speed of sound (x1 = 0.9603) was 1175.3 ± 1.8 m/s. It also gave a speed of sound (x1 = 0.9702) of 1171.7 ± 1.8 m/s, a speed of sound (x1 = 0.9801) of 1168.5 ± 1.8 m/s and a speed of sound (x1 = 0.9895) of 1165 ± 1.8 m/s. It also gave a speed of sound (x1 = 1) of 1160.7 ± 1.8 m/s, a mass density (x1 = 0.0024) of 997.039 ± 3 kg/m3 and a mass density (x1 = 0.0201) of 989.54 ± 3.2 kg/m3. It also gave a mass density (x1 = 0.0202) of 989.382 ± 3.2 kg/m3, a mass density (x1 = 0.0295) of 985.977 ± 3.2 kg/m3 and a mass density (x1 = 0.0366) of 983.574 ± 3.2 kg/m3. The mass density (x1 = 0.0408) was 982.27 ± 3.2 kg/m3, the mass density (x1 = 0.0497) was 979.54 ± 3.2 kg/m3 and the mass density (x1 = 0.0513) was 978.913 ± 3.2 kg/m3. The mass density (x1 = 0.06) was 976.51 ± 3.2 kg/m3 and 976.452 ± 3.2 kg/m3, the mass density (x1 = 0.0707) was 973.538 ± 3.2 kg/m3 and the mass density (x1 = 0.0796) was 971.24 ± 3.2 kg/m3. The mass density (x1 = 0.0801) was 971.049 ± 3.2 kg/m3, the mass density (x1 = 0.0904) was 968.313 ± 3.2 kg/m3 and the mass density (x1 = 0.0997) was 965.87 ± 3.2 kg/m3. For the same compound, the mass density (x1 = 0.1004) was 963.75 ± 3.2 kg/m3, the mass density (x1 = 0.1294) was 957.918 ± 3.2 kg/m3 and the mass density (x1 = 0.1497) was 952.184 ± 3.2 kg/m3. It also gave a mass density (x1 = 0.1499) of 951.92 ± 3.2 kg/m3, a mass density (x1 = 0.1984) of 935.19 ± 3.2 kg/m3 and a mass density (x1 = 0.2008) of 937.088 ± 3.2 kg/m3. For the same compound, the mass density (x1 = 0.2499) was 922.7 ± 3.2 kg/m3, the mass density (x1 = 0.2503) was 922.612 ± 3.2 kg/m3 and the mass density (x1 = 0.2998) was 908.897 ± 3.2 kg/m3. It also gave a mass density (x1 = 0.3016) of 908.77 ± 3.2 kg/m3, a mass density (x1 = 0.3499) of 896.37 ± 3.2 kg/m3 and a mass density (x1 = 0.3507) of 895.841 ± 3.2 kg/m3. The mass density (x1 = 0.399) was 884.54 ± 3.2 kg/m3, the mass density (x1 = 0.3992) was 884.433 ± 3.2 kg/m3 and the mass density (x1 = 0.4495) was 873.57 ± 3.2 kg/m3. The mass density (x1 = 0.4514) was 873.258 ± 3.2 kg/m3, the mass density (x1 = 0.4989) was 864.28 ± 3.2 kg/m3 and the mass density (x1 = 0.5002) was 863.248 ± 3.2 kg/m3. For the same compound, the mass density (x1 = 0.5494) was 854.117 ± 3.2 kg/m3, the mass density (x1 = 0.5495) was 854.95 ± 3.2 kg/m3 and the mass density (x1 = 0.6018) was 845.002 ± 3.2 kg/m3. The mass density (x1 = 0.6067) was 844.7 ± 3.2 kg/m3, the mass density (x1 = 0.6503) was 837.27 ± 3.2 kg/m3 and 837.196 ± 3.2 kg/m3 and the mass density (x1 = 0.6956) was 830.42 ± 3.2 kg/m3. It also gave a mass density (x1 = 0.7006) of 829.434 ± 3.2 kg/m3, a mass density (x1 = 0.7355) of 824.262 ± 3.2 kg/m3 and a mass density (x1 = 0.75) of 822.4 ± 3.2 kg/m3. For the same compound, the mass density (x1 = 0.7843) was 817.86 ± 3.2 kg/m3, the mass density (x1 = 0.7965) was 815.831 ± 3.2 kg/m3 and the mass density (x1 = 0.8433) was 809.567 ± 3.2 kg/m3. For the same compound, the mass density (x1 = 0.8475) was 809.97 ± 3.2 kg/m3, the mass density (x1 = 0.8864) was 804.22 ± 3.1 kg/m3 and the mass density (x1 = 0.892) was 803.132 ± 3.2 kg/m3. For the same compound, the mass density (x1 = 0.9093) was 800.938 ± 3.2 kg/m3, the mass density (x1 = 0.9207) was 799.51 ± 3.2 kg/m3 and the mass density (x1 = 0.929) was 798.49 ± 3.1 kg/m3. For the same compound, the mass density (x1 = 0.9307) was 798.225 ± 3.2 kg/m3, the mass density (x1 = 0.9398) was 797.133 ± 3.2 kg/m3 and the mass density (x1 = 0.9483) was 796.043 ± 3.1 kg/m3. It also gave a mass density (x1 = 0.9603) of 794.596 ± 3.1 kg/m3, a mass density (x1 = 0.9702) of 793.374 ± 3.1 kg/m3 and a mass density (x1 = 0.9801) of 792.038 ± 3.1 kg/m3. It also gave a mass density (x1 = 0.9895) of 791.076 ± 3.1 kg/m3 and a mass density (x1 = 1) of 789.547 ± 3 kg/m3.
